pIC50: −log10 of the molar value.
Key:
[1] = Inhibition of anthranilate synthase
[2] = Inhibition of Arabidopsis 4-hydroxyphenylpyruvate dioxygenase
[3] = biological target: 4-hydroxyphenylpyruvate dioxygenase (Rattus norvegicus, UniProt P32755); experiment: Inhibition of rat 4-hydroxyphenylpyruvate dioxygenase
Sequence of 4-hydroxyphenylpyruvate dioxygenase (P32755 whole entry): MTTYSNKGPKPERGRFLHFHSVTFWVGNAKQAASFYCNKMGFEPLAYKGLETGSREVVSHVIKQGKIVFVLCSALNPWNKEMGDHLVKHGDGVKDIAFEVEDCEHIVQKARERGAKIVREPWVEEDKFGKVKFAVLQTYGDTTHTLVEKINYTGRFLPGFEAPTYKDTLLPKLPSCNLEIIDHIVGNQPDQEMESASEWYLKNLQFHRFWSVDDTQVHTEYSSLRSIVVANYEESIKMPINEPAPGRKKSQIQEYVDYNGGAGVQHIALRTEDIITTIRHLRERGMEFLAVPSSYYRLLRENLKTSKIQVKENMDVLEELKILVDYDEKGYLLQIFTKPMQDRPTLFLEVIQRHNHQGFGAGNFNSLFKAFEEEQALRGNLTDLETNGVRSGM

SMILES | pIC50 [1] | pIC50 [2] | pIC50 [3]
O=C(O)c1cccc(/C(=N/OCCc2ccc(Cl)cc2)c2cccc(C(F)(F)F)c2)c1 | 5.49 | – | –
O=C(NCCCCC1C(=O)/C(=C(\O)C2CCC2)C(=O)N1Cc1ccccc1)Nc1cccc(Cl)c1 (stereo unspecified) | – | 6.80 | ≤ 5.00
O=C(O)COc1ccccc1/C=N/OCc1cc(Cl)ccc1Cl | 5.49 | – | –
O=C(NCCCCC1C(=O)/C(=C(\O)C2CC2)C(=O)N1Cc1ccc(F)cc1)c1ccc(Cl)nc1 (stereo unspecified) | – | 7.70 | 5.41

From ChEMBL document CHEMBL1137757, “Combinatorial chemistry in the agrosciences” (Bioorg Med Chem, 2009)
